How the values were obtained:
[1] = target: T1, hCA IX (Homo sapiens, UniProt Q16790); test: stopped flow CO2 hydrase assay, hCA IX; format: biochemical; conditions: for Ki: mean from 3 assays, errors ±5–10%, 6 h preincubation; for fold loss of hCA IX inhibition potency relative to 14a: Ki ratio versus 14a; for fold increase of hCA IX Ki relative to the 4-iodo derivative 18a: Ki ratio versus 18a; for fold more potent on hCA IX than 6-substituted counterpart: 7-substituted versus 6-substituted regioisomer (20a, 22a)
T1 construct: made in house

[2] = target: T2, hCA II (Homo sapiens, UniProt P00918); test: stopped flow CO2 hydrase assay, hCA II; format: biochemical; conditions: mean from 3 assays, errors ±5–10%; 6 h preincubation
T2 construct: made in house

[3] = target: T3, hCA I (Homo sapiens, UniProt P00915); test: stopped flow CO2 hydrase assay, hCA I; format: biochemical; conditions: mean from 3 assays, errors ±5–10%; 6 h preincubation
T3 construct: made in house
T3 sequence (P00915 whole entry): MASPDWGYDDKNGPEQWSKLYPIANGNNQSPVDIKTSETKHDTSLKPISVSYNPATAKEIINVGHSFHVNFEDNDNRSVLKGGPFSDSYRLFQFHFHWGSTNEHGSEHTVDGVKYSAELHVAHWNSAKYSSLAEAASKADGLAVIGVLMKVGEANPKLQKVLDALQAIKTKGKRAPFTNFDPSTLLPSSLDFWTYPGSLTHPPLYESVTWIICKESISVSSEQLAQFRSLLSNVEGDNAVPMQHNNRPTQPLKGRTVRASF

[4] = target: T4, hCA XII (Homo sapiens, UniProt O43570); test: stopped flow CO2 hydrase assay, hCA XII; format: biochemical; conditions: for fold more effective on hCA XII than 6-substituted counterpart: 7-substituted versus 6-substituted regioisomer (20a, 21a)
T4 construct: made in house
T4 sequence (O43570 25-354): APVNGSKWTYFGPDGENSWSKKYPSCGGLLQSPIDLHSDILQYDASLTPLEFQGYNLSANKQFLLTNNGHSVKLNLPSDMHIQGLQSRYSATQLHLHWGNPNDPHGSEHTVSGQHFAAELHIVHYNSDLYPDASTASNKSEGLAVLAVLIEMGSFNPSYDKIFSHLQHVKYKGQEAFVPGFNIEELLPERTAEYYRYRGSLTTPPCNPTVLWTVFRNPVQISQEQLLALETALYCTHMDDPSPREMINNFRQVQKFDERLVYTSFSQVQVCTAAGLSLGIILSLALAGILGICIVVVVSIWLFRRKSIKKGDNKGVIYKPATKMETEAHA

SMILES: O=C(COc1ccc2oc(=O)ccc2c1)NNC(=S)Nc1ccccc1 [Compound 14a, N-Phenyl-2-(2-((2-oxo-2H-chromen-6-yl)oxy)acetyl)hydrazine-1-carbothioamide]
- fold more potent on hCA IX than on hCA XII ([1]; Ki hCA XII / Ki hCA IX): 84 fold
- Ki [1]: 8.8 nM
- Ki [2]: > 10000 nM
- Ki [3]: > 10000 nM
- melting point: 173 to 175 °C
- Ki [4]: 739 nM

SMILES: O=C(COc1ccc2ccc(=O)oc2c1)NNC(=S)Nc1ccccc1 [Compound 14b, N-Phenyl-2-(2-((2-oxo-2H-chromen-7-yl)oxy)acetyl)hydrazine-1-carbothioamide]
- fold loss of hCA IX inhibition potency relative to 14a [1]: 5.2 fold
- Ki [1]: 46 nM
- Ki [2]: > 10000 nM
- Ki [3]: > 10000 nM
- melting point: 155 to 156 °C
- Ki [4]: 743 nM

SMILES: Cc1ccc(NC(=S)NNC(=O)COc2ccc3oc(=O)ccc3c2)cc1 [Compound 15a, N-(p-Tolyl)-2-(2-((2-oxo-2H-chromen-6-yl)oxy)acetyl)hydrazine-1-carbothioamide]
- fold loss of hCA IX inhibition potency relative to 14a [1]: 26.6 fold
- Ki [1]: 234 nM
- Ki [2]: > 10000 nM
- Ki [3]: > 10000 nM
- melting point: 167 to 169 °C
- Ki [4]: 709 nM

SMILES: Cc1ccc(NC(=S)NNC(=O)COc2ccc3ccc(=O)oc3c2)cc1 [Compound 15b, N-(p-Tolyl)-2-(2-((2-oxo-2H-chromen-7-yl)oxy)acetyl)hydrazine-1-carbothioamide]
- fold increase of hCA IX Ki relative to 14b ([1]; Ki ratio versus 14b): 1.7 fold
- Ki [1]: 78 nM
- Ki [2]: > 10000 nM
- Ki [3]: > 10000 nM
- melting point: 147 to 149 °C (dec.)
- Ki [4]: 684 nM

SMILES: O=C(COc1ccc2oc(=O)ccc2c1)NNC(=S)Nc1ccc(Cl)cc1 [Compound 16a, N-(4-Chlorophenyl)-2-(2-((2-oxo-2H-chromen-6-yl)oxy)acetyl)hydrazine-1-carbothioamide]
- Ki [1]: 48 nM
- Ki [2]: > 10000 nM
- Ki [3]: > 10000 nM
- melting point: 163 to 165 °C
- Ki [4]: 608 nM

SMILES: O=C(COc1ccc2ccc(=O)oc2c1)NNC(=S)Nc1ccc(Cl)cc1 [Compound 16b, N-(4-Chlorophenyl)-2-(2-((2-oxo-2H-chromen-7-yl)oxy)acetyl)hydrazine-1-carbothioamide]
- Ki [1]: 55 nM
- Ki [2]: > 10000 nM
- Ki [3]: > 10000 nM
- melting point: 202 to 203 °C
- Ki [4]: 866 nM

SMILES: O=C(COc1ccc2oc(=O)ccc2c1)NNC(=S)Nc1ccc(F)cc1 [Compound 17a, N-(4-Fluorophenyl)-2-(2-((2-oxo-2H-chromen-6-yl)oxy)acetyl)hydrazine-1-carbothioamide]
- Ki [1]: 39 nM
- Ki [2]: > 10000 nM
- Ki [3]: > 10000 nM
- melting point: 181 to 183 °C
- Ki [4]: 494 nM

SMILES: O=C(COc1ccc2ccc(=O)oc2c1)NNC(=S)Nc1ccc(F)cc1 [Compound 17b, N-(4-Fluorophenyl)-2-(2-((2-oxo-2H-chromen-7-yl)oxy)acetyl)hydrazine-1-carbothioamide]
- Ki [1]: 64 nM
- Ki [2]: > 10000 nM
- Ki [3]: > 10000 nM
- melting point: 119 to 121 °C (dec.)
- Ki [4]: 745 nM

SMILES: O=C(COc1ccc2oc(=O)ccc2c1)NNC(=S)Nc1ccc(I)cc1 [Compound 18a, N-(4-Iodophenyl)-2-(2-((2-oxo-2H-chromen-6-yl)oxy)acetyl)hydrazine-1-carbothioamide]
- Ki [1]: 9.6 nM
- Ki [2]: > 10000 nM
- Ki [3]: > 10000 nM
- melting point: 160 to 162 °C
- Ki [4]: 8.4 nM

SMILES: O=C(COc1ccc2ccc(=O)oc2c1)NNC(=S)Nc1ccc(I)cc1 [Compound 18b, N-(4-Iodophenyl)-2-(2-((2-oxo-2H-chromen-7-yl)oxy)acetyl)hydrazine-1-carbothioamide]
- Ki [1]: 721 nM
- Ki [2]: > 10000 nM
- Ki [3]: > 10000 nM
- melting point: 164 to 166 °C
- Ki [4]: 7.5 nM

SMILES: O=C(COc1ccc2oc(=O)ccc2c1)NNC(=S)Nc1cccc(I)c1 [Compound 19a, N-(3-Iodophenyl)-2-(2-((2-oxo-2H-chromen-6-yl)oxy)acetyl)hydrazine-1-carbothioamide]
- Ki [1]: 9.6 nM
- Ki [2]: > 10000 nM
- Ki [3]: > 10000 nM
- melting point: 144 to 146 °C
- Ki [4]: 79 nM

SMILES: O=C(COc1ccc2ccc(=O)oc2c1)NNC(=S)Nc1cccc(I)c1 [Compound 19b, N-(3-Iodophenyl)-2-(2-((2-oxo-2H-chromen-7-yl)oxy)acetyl)hydrazine-1-carbothioamide]
- Ki [1]: 9.4 nM
- Ki [2]: > 10000 nM
- Ki [3]: > 10000 nM
- melting point: 168 to 169 °C
- Ki [4]: 573 nM

SMILES: O=C(COc1ccc2oc(=O)ccc2c1)NNC(=S)Nc1ccc(C(F)(F)F)cc1 [Compound 20a, N-(4-(Trifluoromethyl)phenyl)-2-(2-((2-oxo-2H-chromen-6-yl)oxy)acetyl)hydrazine-1-carbothioamide]
- fold increase of hCA IX Ki relative to the 4-iodo derivative 18a [1]: 9.6 fold
- Ki [1]: 92 nM
- Ki [2]: > 10000 nM
- Ki [3]: > 10000 nM
- Ki [4]: 306 nM

SMILES: O=C(COc1ccc2ccc(=O)oc2c1)NNC(=S)Nc1ccc(C(F)(F)F)cc1 [Compound 20b, N-(4-(Trifluoromethyl)phenyl)-2-(2-((2-oxo-2H-chromen-7-yl)oxy)acetyl)hydrazine-1-carbothioamide]
- fold more potent on hCA IX than 6-substituted counterpart [1]: 1.3 fold
- Ki [1]: 70 nM
- Ki [2]: > 10000 nM
- Ki [3]: > 10000 nM
- Ki [4]: 56.6 nM
- fold more effective on hCA XII than 6-substituted counterpart [4]: 5.4 fold

SMILES: O=C(COc1ccc2oc(=O)ccc2c1)NNC(=S)Nc1cccc([N+](=O)[O-])c1 [Compound 21a, N-(3-Nitrophenyl)-2-(2-((2-oxo-2H-chromen-6-yl)oxy)acetyl)hydrazine-1-carbothioamide]
- Ki [1]: 71 nM
- Ki [2]: > 10000 nM
- Ki [3]: > 10000 nM
- melting point: 210 to 212 °C
- Ki [4]: 328 nM

SMILES: O=C(COc1ccc2ccc(=O)oc2c1)NNC(=S)Nc1cccc([N+](=O)[O-])c1 [Compound 21b, N-(3-Nitrophenyl)-2-(2-((2-oxo-2H-chromen-7-yl)oxy)acetyl)hydrazine-1-carbothioamide]
- Ki [1]: 9.1 nM
- Ki [2]: > 10000 nM
- Ki [3]: > 10000 nM
- melting point: 214 to 215 °C
- Ki [4]: 8.6 nM
- fold more effective on hCA XII than 6-substituted counterpart [4]: 38.2 fold

SMILES: CSc1ccc(NC(=S)NNC(=O)COc2ccc3oc(=O)ccc3c2)cc1 [Compound 22a, N-(4-(Methylthio)phenyl)-2-(2-((2-oxo-2H-chromen-6-yl)oxy)acetyl)hydrazine-1-carbothioamide]
- fold increase of hCA IX Ki relative to the 4-iodo derivative 18a [1]: 5.9 fold
- Ki [1]: 57 nM
- Ki [2]: > 10000 nM
- Ki [3]: > 10000 nM
- melting point: 148 to 150 °C
- Ki [4]: 4 nM
- fold less effective on hCA IX than on hCA XII ([4]; Ki hCA IX / Ki hCA XII): 14 fold

SMILES: CSc1ccc(NC(=S)NNC(=O)COc2ccc3ccc(=O)oc3c2)cc1 [Compound 22b, N-(4-(Methylthio)phenyl)-2-(2-((2-oxo-2H-chromen-7-yl)oxy)acetyl)hydrazine-1-carbothioamide]
- fold more potent on hCA IX than 6-substituted counterpart [1]: 1.7 fold
- Ki [1]: 33 nM
- Ki [2]: > 10000 nM
- Ki [3]: > 10000 nM
- melting point: 163 to 164 °C
- Ki [4]: 4.6 nM

SMILES: N#Cc1ccc(NC(=S)NNC(=O)COc2ccc3ccc(=O)oc3c2)cc1 [Compound 23b, N-(4-Cyanophenyl)-2-(2-((2-oxo-2H-chromen-7-yl)oxy)acetyl)hydrazine-1-carbothioamide]
- Ki [1]: 437 nM
- Ki [2]: > 10000 nM
- Ki [3]: > 10000 nM
- melting point: 224 to 226 °C
- Ki [4]: 473 nM

From paper PMC9316761, “Thiosemicarbazide-Substituted Coumarins as Selective Inhibitors of the Tumor Associated Human Carbonic Anhydrases IX and XII” (Molecules, 2022)
